Assay results published in US20240401154A1, “SYNTHESIS AND PREPARATION OF ULTRA-LOW VISCOSITY AND HIGH MAGNETIC SUSCEPTIBILITY MAGNETIC IONIC LIQUIDS” (priority 2023, published 2024).
Marks after values point to notes of the source that are not given here.

Columns and labels:
[1] = reported at 20.0° C.; previously studied MILs, Table 2; cited from earlier work
[2] = SQUID magnetometer; previously studied MILs, Table 2; cited from earlier work
[3] = Viscosity, Brookfield DVI cone and plate viscometer; format: physicochemical; details: 21.7° C.; neat MIL dried 48 hours under vacuum
Description: A Brookfield DVI cone and plate viscometer equipped with a CPA-51Z cone spindle was employed to obtain viscosity measurements at […] using approximately 0.5 g of each MIL after extensive drying for 48 hours under vacuum. Viscosity measurements were conducted at 21.7° C. for 15 lanthanide and transition metal MILs examined in this study.
Viscosity measurements were conducted at 21.7° C. for 15 lanthanide and transition metal MILs examined in this study.

[4] = Effective magnetic moment from magnetic susceptibility balance (MSB); format: physicochemical; details: per formula unit
Description: Magnetic properties were analyzed using a magnetic susceptibility balance (MSB, Sherwood Scientific, Cambridge, UK) and a Quantum Design Superconducting Quantum Interference Device (SQUID) magnetometer (MPMS XL-7). The magnetic properties of transition metal MILs were further studied using a SQUID magnetometer to confirm their paramagnetic nature as well as if any magnetic transition occurs in the samples.
Magnetic susceptibility (XM) was calculated through Equation (1).
Effective magnetic moment (μeff) was calculated through Equation (2). In Equation (2), T represents the temperature at which the magnetic susceptibility measurements were conducted.
15 MILs incorporating rare-earth and transition metals were examined using a magnetic susceptibility balance (MSB).

[5] = Solubility of MILs in organic solvents and water; format: physicochemical
Text: The solubility of lanthanide and transition metal MILs was investigated in popular traditional organic solvents. […]
The solubility of lanthanide and transition metal MILs was investigated in popular traditional organic solvents.

[6] = Thermal stability, MIL as GC stationary phase with FID; format: physicochemical; details: exponential increase in response beyond 2,000 pA
Description: (§1) The thermal stability of MILs was measured from 40 to 350° C. at a ramp rate of 5° C. min^−1 by performing thermogravimetric analysis (TGA) using a NETZSCH STA 449 F1 Jupiter thermal analyzer (Selb, Germany). To further investigate the thermal stability of MILs using a more sensitive technique, the solvents were employed as a gas chromatographic (GC) stationary phase and subjected to an oven temperature program from 40 to 200° C. at a ramp rate of 1° C. min^−1 and decomposition/degradation products detected using an ultra-sensitive flame ionization detector (FID), with all measurements being performed on an Agilent Technologies 7890B gas chromatograph (Santa Clara, CA, USA).
To further investigate the thermal stability of MILs using a more sensitive technique, the solvents were employed as a gas chromatographic (GC) stationary phase and subjected to an oven temperature program from 40 to 200° C. at a ramp rate of 1° C. min^−1 and decomposition/degradation products detected using an ultra-sensitive flame ionization detector (FID).

[7] = Thermal stability by thermogravimetric analysis (TGA); format: physicochemical; details: TGA at 10% weight loss
Description: as §1
Volitization/degradation of MILs as a function of temperature were measured using thermogravimetric analysis. The thermal stability of magnetic ionic liquids was measured from 40 to 350° C. at a ramp rate of 5° C. min^−1 by performing thermogravimetric analysis (TGA) using a NETZSCH STA 449 F1 Jupiter thermal analyzer (Selb, Germany).
To investigate the ability of DGE-based MILs to withstand elevated temperatures without undergoing degradation/decomposition, their thermal stabilities were investigated using thermogravimetric analysis (TGA). FIG. 13 through FIG. 27 display thermograms for MILs 1 to 15. The thermogram results are summarized in greater detail in the following paragraphs.

[8] = acetone, chloroform, dichloromethane, acetonitrile, methanol, ethanol, diethyl ether, ethyl acetate, isopropanol at 20% (w/v)
[9] = hexane, heptane, benzene, toluene at 10% (w/v)
[10] = hexane, heptane, benzene, toluene at 20% (w/v)
[11] = twelve organic solvents (without acetonitrile) at 50% (w/v)

| SMILES | Viscosity [1] | Effective magnetic moment [2] | Viscosity (cP) [3] | μeff, effective magnetic moment [4] | Solubility [5, 8] | Solubility [5, 9] | Solubility [5, 10] | Solubility [5, 11] | Solubility ([5]; water at 0.01% (w/v)) | Onset of MIL volatilization (° C.)^1 [6] | Onset of MIL volatilization (° C.)^2 [7] |
| --- | --- | --- | --- | --- | --- | --- | --- | --- | --- | --- | --- |
| CCCCCCCCCCCCCC[P+](CCCCCC)(CCCCCC)CCCCCC.CCCCCCCCCCCCCC[P+](CCCCCC)(CCCCCC)CCCCCC.CCCCCCCCCCCCCC[P+](CCCCCC)(CCCCCC)CCCCCC.[Cl-].[Cl-].[Cl-].[Cl-].[Cl-].[Cl-].[Gd+3] [[P66614]3[GdCl6]] | 28,230^d | 7.86^f |  |  |  |  |  |  |  |  |  |
| CCCCCCCCCCCCCC[P+](CCCCCC)(CCCCCC)CCCCCC.CCCCCCCCCCCCCC[P+](CCCCCC)(CCCCCC)CCCCCC.[Cl-].[Cl-].[Cl-].[Cl-].[Mn+2] [[P66614]2[MnCl4]] | 112,300^d | 5.81^f |  |  |  |  |  |  |  |  |  |
| CCCCCCCCOC(=O)COCC(=O)OCCCCCCCC.CCCCCCCCOC(=O)COCC(=O)OCCCCCCCC.CCCCCCCCOC(=O)COCC(=O)OCCCCCCCC.CCCCCCCCOC(=O)COCC(=O)OCCCCCCCC.CCCCCCCCOC(=O)COCC(=O)OCCCCCCCC.CCCCCCCCOC(=O)COCC(=O)OCCCCCCCC.O=C(C=C([O-])C(F)(F)F)C(F)(F)F.O=C(C=C([O-])C(F)(F)F)C(F)(F)F.O=C(C=C([O-])C(F)(F)F)C(F)(F)F.O=C(C=C([O-])C(F)(F)F)C(F)(F)F.O=C(C=C([O-])C(F)(F)F)C(F)(F)F.O=C(C=C([O-])C(F)(F)F)C(F)(F)F.O=C(C=C([O-])C(F)(F)F)C(F)(F)F.O=C(C=C([O-])C(F)(F)F)C(F)(F)F.[Co+2].[Dy+3].[Dy+3] [compound 13] |  |  | 137.2 cP | 15.38 μB | S^b (soluble in acetone, chloroform, dichloromethane, acetonitrile, methanol, ethanol, diethyl ether, ethyl acetate, and isopropanol at 20% (w/v).) | S^a (soluble in hexane, heptane, benzene, and toluene at 10% (w/v).) | S^c (soluble in hexane, heptane, benzene, and toluene at 20% (w/v).) | S^d (soluble in acetone, chloroform, dichloromethane, methanol, ethanol, diethyl ether, ethyl acetate, isopropanol hexane, heptane, benzene, and toluene at 50% (w/v).) | S^f (insoluble in water at 0.01% (w/v).) | 131 °C | 182.3 °C |
| CCCCCCCCOC(=O)COCC(=O)OCCCCCCCC.CCCCCCCCOC(=O)COCC(=O)OCCCCCCCC.CCCCCCCCOC(=O)COCC(=O)OCCCCCCCC.CCCCCCCCOC(=O)COCC(=O)OCCCCCCCC.CCCCCCCCOC(=O)COCC(=O)OCCCCCCCC.CCCCCCCCOC(=O)COCC(=O)OCCCCCCCC.O=C(C=C([O-])C(F)(F)F)C(F)(F)F.O=C(C=C([O-])C(F)(F)F)C(F)(F)F.O=C(C=C([O-])C(F)(F)F)C(F)(F)F.O=C(C=C([O-])C(F)(F)F)C(F)(F)F.O=C(C=C([O-])C(F)(F)F)C(F)(F)F.O=C(C=C([O-])C(F)(F)F)C(F)(F)F.[Ni+2].[Ni+2].[Ni+2] [compound 5] |  |  | 119.1 cP | 5.33 μB | S^b (soluble in acetone, chloroform, dichloromethane, acetonitrile, methanol, ethanol, diethyl ether, ethyl acetate, and isopropanol at 20% (w/v).) | S^a (soluble in hexane, heptane, benzene, and toluene at 10% (w/v).) | S^c (soluble in hexane, heptane, benzene, and toluene at 20% (w/v).) | S^d (soluble in acetone, chloroform, dichloromethane, methanol, ethanol, diethyl ether, ethyl acetate, isopropanol hexane, heptane, benzene, and toluene at 50% (w/v).) | S^f (insoluble in water at 0.01% (w/v).) | 190 °C | 264.4 °C |
| CCCCCCCCOC(=O)COCC(=O)OCCCCCCCC.CCCCCCCCOC(=O)COCC(=O)OCCCCCCCC.CCCCCCCCOC(=O)COCC(=O)OCCCCCCCC.CCCCCCCCOC(=O)COCC(=O)OCCCCCCCC.CCCCCCCCOC(=O)COCC(=O)OCCCCCCCC.CCCCCCCCOC(=O)COCC(=O)OCCCCCCCC.O=C(C=C([O-])C(F)(F)F)C(F)(F)F.O=C(C=C([O-])C(F)(F)F)C(F)(F)F.O=C(C=C([O-])C(F)(F)F)C(F)(F)F.O=C(C=C([O-])C(F)(F)F)C(F)(F)F.O=C(C=C([O-])C(F)(F)F)C(F)(F)F.O=C(C=C([O-])C(F)(F)F)C(F)(F)F.O=C(C=C([O-])C(F)(F)F)C(F)(F)F.O=C(C=C([O-])C(F)(F)F)C(F)(F)F.[Co+2].[Ho+3].[Ho+3] [compound 15] |  |  | 216.4 cP | 15.56 μB | S^b (soluble in acetone, chloroform, dichloromethane, acetonitrile, methanol, ethanol, diethyl ether, ethyl acetate, and isopropanol at 20% (w/v).) | S^a (soluble in hexane, heptane, benzene, and toluene at 10% (w/v).) | S^c (soluble in hexane, heptane, benzene, and toluene at 20% (w/v).) | S^d (soluble in acetone, chloroform, dichloromethane, methanol, ethanol, diethyl ether, ethyl acetate, isopropanol hexane, heptane, benzene, and toluene at 50% (w/v).) | S^f (insoluble in water at 0.01% (w/v).) | 115 °C | 183.3 °C |
| CCCCCCCCOC(=O)c1ccc(C(=O)OCCCCCCCC)o1.CCCCCCCCOC(=O)c1ccc(C(=O)OCCCCCCCC)o1.CCCCCCCCOC(=O)c1ccc(C(=O)OCCCCCCCC)o1.CCCCCCCCOC(=O)c1ccc(C(=O)OCCCCCCCC)o1.CCCCCCCCOC(=O)c1ccc(C(=O)OCCCCCCCC)o1.CCCCCCCCOC(=O)c1ccc(C(=O)OCCCCCCCC)o1.O=C(C=C([O-])C(F)(F)F)C(F)(F)F.O=C(C=C([O-])C(F)(F)F)C(F)(F)F.O=C(C=C([O-])C(F)(F)F)C(F)(F)F.O=C(C=C([O-])C(F)(F)F)C(F)(F)F.O=C(C=C([O-])C(F)(F)F)C(F)(F)F.O=C(C=C([O-])C(F)(F)F)C(F)(F)F.[Ni+2].[Ni+2].[Ni+2] [compound 11] |  |  | 453.5^b cP | 5.51 μB | S^b (soluble in acetone, chloroform, dichloromethane, acetonitrile, methanol, ethanol, diethyl ether, ethyl acetate, and isopropanol at 20% (w/v).) | S^a (soluble in hexane, heptane, benzene, and toluene at 10% (w/v).) | S^c (soluble in hexane, heptane, benzene, and toluene at 20% (w/v).) | S^d (soluble in acetone, chloroform, dichloromethane, methanol, ethanol, diethyl ether, ethyl acetate, isopropanol hexane, heptane, benzene, and toluene at 50% (w/v).) | S^f (insoluble in water at 0.01% (w/v).) | 142 °C | 160.6 °C |
| CCCCCCCCOC(=O)COCC(=O)OCCCCCCCC.CCCCCCCCOC(=O)COCC(=O)OCCCCCCCC.CCCCCCCCOC(=O)COCC(=O)OCCCCCCCC.CCCCCCCCOC(=O)COCC(=O)OCCCCCCCC.CCCCCCCCOC(=O)COCC(=O)OCCCCCCCC.CCCCCCCCOC(=O)COCC(=O)OCCCCCCCC.O=C(C=C([O-])C(F)(F)F)C(F)(F)F.O=C(C=C([O-])C(F)(F)F)C(F)(F)F.O=C(C=C([O-])C(F)(F)F)C(F)(F)F.O=C(C=C([O-])C(F)(F)F)C(F)(F)F.O=C(C=C([O-])C(F)(F)F)C(F)(F)F.O=C(C=C([O-])C(F)(F)F)C(F)(F)F.O=C(C=C([O-])C(F)(F)F)C(F)(F)F.O=C(C=C([O-])C(F)(F)F)C(F)(F)F.[Co+2].[Gd+3].[Gd+3] [compound 14] |  |  | 149.1 cP | 12.43 μB | S^b (soluble in acetone, chloroform, dichloromethane, acetonitrile, methanol, ethanol, diethyl ether, ethyl acetate, and isopropanol at 20% (w/v).) | S^a (soluble in hexane, heptane, benzene, and toluene at 10% (w/v).) | S^c (soluble in hexane, heptane, benzene, and toluene at 20% (w/v).) | S^d (soluble in acetone, chloroform, dichloromethane, methanol, ethanol, diethyl ether, ethyl acetate, isopropanol hexane, heptane, benzene, and toluene at 50% (w/v).) | S^f (insoluble in water at 0.01% (w/v).) | 126 °C | 172.9 °C |
